Literature values as cited in patent publication US20060211766A1, “Gelled immunomodulating topical compositions and a method of treating warts and other human papilloma virus skin infections” (priority 2004, published 2006).

Test system: rodents
Conditions: in rodents

For `CC(C)=O` [Acetone], the LD/50 is listed as 10.7 mg per kilogram.
